# According to patent US11547681B2, “N-acylethanolamide derivatives and uses thereof” (ELIEM THERAPEUTICS, INC., priority 2016, dated 2023):
# Legend:
# in vitro [1] = conditions: for Measured concentration of analyte PEA, 0 min / Measured concentration of analyte PEA, 10 min / Measured concentration of analyte PEA, 20 min / Measured concentration of analyte PEA, 30 min / Measured concentration of analyte PEA, 60 min / % Remaining of Initial, 0 min / % Remaining of Initial, 10 min / % Remaining of Initial, 20 min / % Remaining of Initial, 30 min / % Remaining of Initial, 60 min: 1 μM; for % Remaining of Initial, 0 min / % Remaining of Initial, 10 min / % Remaining of Initial, 20 min / % Remaining of Initial, 30 min / % Remaining of Initial, 60 min / microsomal CLint at 1 μM / half-life at 1 μM: microsomes; for % Remaining of Initial, 0 min: 0 h; for % Remaining of Initial, 30 min: 0.5 h; for % Remaining of Initial, 60 min: 1 h
# Protocol: The reaction mixture, minus cofactors, was prepared as described below. The test article was added into the reaction mixture at a final concentration of 1 μM. […] An aliquot of the reaction mixture (without cofactor) was equilibrated in a shaking water bath at 37° C. for 3 minutes. The reaction was initiated by the addition of cofactor, and the mixture was incubated in a shaking water bath at 37° C. Aliquots (100 μL) were withdrawn at 0, 10, 20, 30, and 60 minutes. All samples were immediately combined with 400 μL of ice-cold 50/50 acetonitrile/H2O containing 0.1% formic acid and internal standard to terminate the reaction. The samples were then mixed and centrifuged to precipitate proteins. Calibration standards were prepared in matched matrix. All samples and standards were assayed by LC-MS/MS using electrospray ionization for both the dosed prodrug I-9 and the expected drug (PEA). Analytical conditions are outlined in Appendix 4-1. The test article concentration at each time point was compared to the test article concentration at time 0 to determine the percent remaining at each time point. Half-lives were calculated using GraphPad software, fitting to a single-phase exponential decay equation.
# (§1) Reaction mixture, minus cofactors, was prepared as described below. Test article was added into the reaction mixture at a final concentration of 1 μM. […] An aliquot of the reaction mixture (without cofactor) was equilibrated in a shaking water bath at 37° C. for 3 minutes. The reaction was initiated by the addition of cofactor, and the mixture was incubated in a shaking water bath at 37° C. Aliquots (100 μL) were withdrawn at 0, 10, 20, 30, and 60 minutes. Test article samples were immediately combined with 300 μL of ice-cold acetonitrile containing 1% formic acid. Control samples were immediately combined with 400 μL of ice-cold 50/50 acetonitrile (ACN)/dH2O containing 0.1% formic acid and internal standard to terminate the reaction. Samples were then mixed and centrifuged to precipitate proteins. Calibration standards were prepared in matched matrix. Samples and standards were assayed by LC-MS/MS using electrospray ionization for both dosed prodrug and expected drug (PEA). Analytical conditions are outlined in Appendix 8-1. Test article concentration at each time point was compared to test article concentration at time 0 to determine the percent remaining at each time point. Half-lives were calculated using GraphPad software, fitting to a single-phase exponential decay equation.
# (§2) Reaction mixture, minus cofactors, was prepared as described below. Test article was added into the reaction mixture at a final concentration of 1 μM. […] An aliquot of the reaction mixture (without cofactor) was equilibrated in a shaking water bath at 37° C. for 5 minutes. Reaction was initiated by the addition of cofactor, and the mixture was incubated in a shaking water bath at 37° C. Aliquots (100 μL) were withdrawn at 0, 10, 20, 30, and 60 minutes. Test article samples were immediately combined with 300 μL of ice-cold acetonitrile containing 1% formic acid. Control samples were immediately combined with 400 μL of ice-cold 50/50 acetonitrile (ACN)/dH2O containing 0.1% formic acid and internal standard to terminate the reaction. Samples were then mixed and centrifuged to precipitate proteins. Calibration standards were prepared in matched matrix. Samples and standards were assayed by LC-MS/MS using electrospray ionization for both the dosed prodrug and the expected drug (PEA). Analytical conditions are outlined in Appendix 10-1. Test article concentration at each time point was compared to the test article concentration at time 0 to determine the percent remaining at each time point. Half-lives were calculated using GraphPad software, fitting to a single-phase exponential decay equation.
# Reaction mixture, minus cofactors, was prepared as described below. Test article was added into the reaction mixture at a final concentration of 1 μM.
# in vitro [2] = conditions: male; for Measured concentration of analyte PEA, 0 min / Measured concentration of analyte PEA, 10 min / Measured concentration of analyte PEA, 20 min / Measured concentration of analyte PEA, 30 min / Measured concentration of analyte PEA, 60 min / % Remaining of Initial, 0 min / % Remaining of Initial, 10 min / % Remaining of Initial, 20 min / % Remaining of Initial, 30 min / % Remaining of Initial, 60 min: 1 μM; for % Remaining of Initial, 0 min / % Remaining of Initial, 10 min / % Remaining of Initial, 20 min / % Remaining of Initial, 30 min / % Remaining of Initial, 60 min / microsomal CLint at 1 μM / half-life at 1 μM: microsomes; for % Remaining of Initial, 0 min: 0 h; for % Remaining of Initial, 30 min: 0.5 h; for % Remaining of Initial, 60 min: 1 h
# Protocol: as §1, §2
# as §1, with “minutes. Reaction” for “minutes. The reaction”, “300 μL,” for “300 μL”, “Appendix 13-1.” for “Appendix 8-1.”
# Reaction mixture, minus cofactors, was prepared as described below.
compound,measurement,setting,value
CCCCCCCCCCCCCCCC(=O)NCCOC(=O)CCC [Compound I-2],"Measured concentration of analyte PEA, 0 min","in vitro [1]; both, human",0.15 µM
same,"Measured concentration of analyte PEA, 10 min","in vitro [1]; both, human",0.23 µM
same,"Measured concentration of analyte PEA, 20 min","in vitro [1]; both, human",0.19 µM
same,"Measured concentration of analyte PEA, 30 min","in vitro [1]; both, human",0.15 µM
same,"Measured concentration of analyte PEA, 60 min","in vitro [1]; both, human",0.071 µM
same,"% Remaining of Initial, 0 min","in vitro [1]; both, human",100%
same,"% Remaining of Initial, 10 min","in vitro [1]; both, human",10%
same,"% Remaining of Initial, 20 min","in vitro [1]; both, human",1.6%
same,"% Remaining of Initial, 30 min","in vitro [1]; both, human",<1.0%
same,"% Remaining of Initial, 60 min","in vitro [1]; both, human",<1.0%
same,microsomal CLint at 1 μM,"in vitro [1]; both, human",451 µL/min/mg
same,half-life at 1 μM,"in vitro [1]; both, human",3.1 min
same,"Measured concentration of analyte PEA, 0 min","in vitro [1]; male, Sprague-Dawley, rat",0.40 µM
same,"Measured concentration of analyte PEA, 10 min","in vitro [1]; male, Sprague-Dawley, rat",0.11 µM
same,"Measured concentration of analyte PEA, 20 min","in vitro [1]; male, Sprague-Dawley, rat",0.028 µM
same,"Measured concentration of analyte PEA, 30 min","in vitro [1]; male, Sprague-Dawley, rat",0.0083 µM
same,"Measured concentration of analyte PEA, 60 min","in vitro [1]; male, Sprague-Dawley, rat",0 µM
same,"% Remaining of Initial, 0 min","in vitro [1]; male, Sprague-Dawley, rat",100%
same,"% Remaining of Initial, 10 min","in vitro [1]; male, Sprague-Dawley, rat",<1.0%
same,"% Remaining of Initial, 20 min","in vitro [1]; male, Sprague-Dawley, rat",<1.0%
same,"% Remaining of Initial, 30 min","in vitro [1]; male, Sprague-Dawley, rat",<1.0%
same,"% Remaining of Initial, 60 min","in vitro [1]; male, Sprague-Dawley, rat",<1.0%
same,microsomal CLint at 1 μM,"in vitro [1]; male, Sprague-Dawley, rat",> 1380 µL/min/mg
same,half-life at 1 μM,"in vitro [1]; male, Sprague-Dawley, rat",< 1 min
same,"Measured concentration of analyte PEA, 0 min","in vitro [2]; Beagle, dog",0.23 µM
same,"Measured concentration of analyte PEA, 10 min","in vitro [2]; Beagle, dog",0.48 µM
same,"Measured concentration of analyte PEA, 20 min","in vitro [2]; Beagle, dog",0.38 µM
same,"Measured concentration of analyte PEA, 30 min","in vitro [2]; Beagle, dog",0.29 µM
same,"Measured concentration of analyte PEA, 60 min","in vitro [2]; Beagle, dog",0.17 µM
same,"% Remaining of Initial, 0 min","in vitro [2]; Beagle, dog",100%
same,"% Remaining of Initial, 10 min","in vitro [2]; Beagle, dog",5.4%
same,"% Remaining of Initial, 20 min","in vitro [2]; Beagle, dog",<1.0%
same,"% Remaining of Initial, 30 min","in vitro [2]; Beagle, dog",<1.0%
same,"% Remaining of Initial, 60 min","in vitro [2]; Beagle, dog",<1.0%
same,microsomal CLint at 1 μM,"in vitro [2]; Beagle, dog",581 µL/min/mg
same,half-life at 1 μM,"in vitro [2]; Beagle, dog",2.4 min
same,"Measured concentration of analyte PEA, 0 min","in vitro [2]; CD-1, mouse",0.48 µM
same,"Measured concentration of analyte PEA, 10 min","in vitro [2]; CD-1, mouse",0.34 µM
same,"Measured concentration of analyte PEA, 20 min","in vitro [2]; CD-1, mouse",0.19 µM
same,"Measured concentration of analyte PEA, 30 min","in vitro [2]; CD-1, mouse",0.12 µM
same,"Measured concentration of analyte PEA, 60 min","in vitro [2]; CD-1, mouse",0.023 µM
same,"% Remaining of Initial, 0 min","in vitro [2]; CD-1, mouse",100%
same,"% Remaining of Initial, 10 min","in vitro [2]; CD-1, mouse",<1.0%
same,"% Remaining of Initial, 20 min","in vitro [2]; CD-1, mouse",<1.0%
same,"% Remaining of Initial, 30 min","in vitro [2]; CD-1, mouse",<1.0%
same,"% Remaining of Initial, 60 min","in vitro [2]; CD-1, mouse",<1.0%
same,microsomal CLint at 1 μM,"in vitro [2]; CD-1, mouse",> 1380 µL/min/mg
same,half-life at 1 μM,"in vitro [2]; CD-1, mouse",< 1 min
